This passage reports IC50 and IC90 results from PubChem BioAssay AID449762 (Southern Research Specialized Biocontainment Screening …, 2010).

The term IC50 denotes the concentration that inhibits the measured activity by half. Usually IC90 stands for the concentration at which the effect reaches the 90% level. Low values mean an effect from little substance, high ones a need for much substance.

Inconclusive results are not listed. Where only a bound is given, the exact number is not on record here.

The test relates to M. tuberculosis H37Rv growth inhibition, 7H9 media. Nature of the test: M. tuberculosis growth inhibition, HTS (AID 449762).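 On all read-outs here: bacterial growth assessed after seven days of incubation.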 The note with it: for IC90: measured here: IC90 growth inhibition.

As to `O=[N+]([O-])c1cc(Cl)c(O)c(-[n+]2c(-c3ccccc3)cc(-c3ccccc3)cc2-c2ccccc2)c1`, the IC50 is 2.32 µM and the IC90 is 5.36 µM. Turning to `CCCCn1c(=O)c(C(=O)Nc2ncccc2C)c(O)c2ccccc21`, the IC50 was 10.3 µM and the IC90 turned out to be 15.8 µM.

On to `COc1cc(N)c(Cl)cc1C(=O)N[C@H]1CCN(CCCOc2ccc(F)cc2)C[C@H]1OC`, for which the half-inhibitory concentration (IC50) was 43.8 µM and the IC90 came out at 55.2 µM. The like results for `CC(=O)c1cccc(NC(=S)NC2CCCCCCC2)c1` were, in that order, 23.6 µM and 26.2 µM. With `Cc1ccc(C2C3=C(CC(C)(C)CC3=O)N=C3c4ccccc4C(=O)C32)cc1` (stereo not given), the IC50 is 66.4 µM and the IC90 turned out to be 90.7 µM. Taken in the same sequence, the figures for `CC1(C)C2CCC1(C)C(OCC[N+](C)(C)CC(=O)OC1CCCCC1)C2` (stereo not given) were 10.9 µM and 12.2 µM. Taken in the same sequence, the figures for `O=[N+]([O-])c1cc([N+](=O)[O-])c2cc3ccccc3nc2c1` were less than 0.2 µM and 0.81 µM. Taken in the same sequence, the figures for `CCOC(=O)c1nc2sc3c(c2c(=O)[nH]1)CCC(C)C3` (stereo not given) were 46.7 µM and greater than 100 µM. For the compound `COC(=O)c1ccc(/C=C/c2c(-c3ccsc3)oc3ccc(N4CCOCC4)cc23)cc1`, the IC50 is 21.2 µM and the IC90 is 41.2 µM. Taken in the same sequence, the figures for `COc1ccccc1C(CNC(=O)C(C)(C)Oc1ccc(Cl)cc1)N1CCCC1` (stereo not given) were 23.5 µM and 26.5 µM. The like results for `CCOC(=O)c1cc(-c2csc(Nc3c(C)cc(C)cc3C)n2)on1` were, in that order, 1.07 µM and 1.76 µM. The like results for `O=S(Cc1ccc(Br)cc1)Cc1nnc(SCc2ccc(Cl)cc2)n1-c1ccccc1` (stereo not given) were, in that order, 91.1 µM and greater than 100 µM. As for `CC(C)(C)c1ccc(C(=O)NNc2cc(N3CCCCC3)nc(N3CCCCC3)n2)cc1`, the concentration for half-maximal inhibition (IC50) was 60.6 µM and the IC90 was determined as 74.8 µM.

Consider `NC(=S)N/N=C/c1ccccc1OCCSc1ccc(Cl)cc1`, for which the IC50 was 45.7 µM and the IC90 was greater than 100 µM.

Turning to `O=C(COc1ccccc1)NNc1nc2ccccc2s1`, the IC50 is 48.4 µM and the concentration for an effect of 90% (IC90) was greater than 100 µM. Taken in the same sequence, the figures for `Cn1c2ccccc2c2cc(C(=O)NNC(=O)CCl)sc21` were 1.72 µM and 3.91 µM.

Take `CCOc1ccc(-c2csc(/C(C#N)=C\c3ccc(O)c([N+](=O)[O-])c3)n2)cc1`: the IC50 is 11.1 µM and the IC90 was greater than 100 µM. Taken in the same sequence, the figures for `CC1CCCC(C)N1/N=C/c1c[nH]c2ccc(Br)cc12` (stereo not given) were 23.3 µM and 26.3 µM. The like results for `CCCCn1nc(C(=O)N[C@@H](CCSC)c2nc3ccccc3[nH]2)c2ccccc2c1=O` were, in that order, 53 µM and 78.5 µM.

Take `O=c1[nH]c(=O)n(C2CCCO2)cc1F` (stereo not given): the IC50 is 29 µM and the IC90 stood at 55.3 µM.

Regarding `Cc1sc2ncnc(N3CCC(C(=O)N(CC(C)C)c4nc5ccccc5s4)CC3)c2c1C`, the half-inhibitory concentration (IC50) is 84.5 µM and the IC90 was greater than 100 µM.

`COC1=CC(=O)c2ccccc2C1=O`: the IC50 was 16 µM and the IC90 stood at 21.9 µM. The like results for `Cc1[nH]n(-c2ccccc2)c(=O)c1C(C[N+](=O)[O-])c1ccccc1Cl` (stereo not given) were, in that order, 6.99 µM and 14.3 µM.

Turning to `Cc1nonc1OCCNCCNc1ccc([N+](=O)[O-])c2cccnc12`, the IC50 was 6.68 µM and the IC90 came out at 13.9 µM. Taken in the same sequence, the figures for `Cc1ccc2c(c1)nnn2C1CCN(CC(=O)N2CCN(c3ccc(F)cc3)CC2)CC1` were 35.3 µM and greater than 100 µM. Taken in the same sequence, the figures for `C=CCOc1ccccc1CN(C(=O)CCl)c1ccc2c(c1)OCO2` were 0.92 µM and 2.58 µM. The like results for `CN(C)[C@@H]1C(=O)C(C(N)=O)=C(O)[C@@]2(O)C(=O)C3=C(O)c4c(O)cccc4[C@@](C)(O)C3C[C@@H]12` (stereo not given in full) were, in that order, 5.95 µM and 15 µM. For the compound `COC(=O)c1c(NC(=O)CC2SC(N)=NC2=O)sc2c1CCC(C(C)(C)C)C2` (stereo not given), the 50% inhibitory concentration (IC50) is 34.4 µM and the IC90 is 51.3 µM.

Consider `COC(=O)C1=C(c2ccc(OCc3ccccc3)cc2)C[C@@H]2CC[C@H]1N2C(=O)NC1CCN(Cc2ccccc2)CC1`, for which the IC50 was 24.4 µM and the IC90 amounted to 27.5 µM.

For `COc1ccc(-c2cc(C3CCN(Cc4cccc(C(F)(F)F)c4)CC3)[nH]n2)cc1`, the IC50 was 10.6 µM and the IC90 is 15.9 µM. The like results for `O=C(NC1CCN(Cc2ccccc2)CC1)c1cccc(S(=O)(=O)Nc2ccc(SC(F)F)cc2)c1` were, in that order, 15.5 µM and 21.9 µM.

As to `Cc1ccccc1N/N=C/c1c(C)nc2ccccn12`, the half-maximal inhibitory concentration (IC50) was 47.1 µM and the 90% effect concentration (IC90) is 53.7 µM. Turning to `COc1ccc(C2c3[nH]c4ccccc4c3CCN2C(=O)c2cc3ncccn3n2)c(F)c1` (stereo not given), the IC90 was greater than 100 µM. For `CC(=O)N1CCN(c2ccc(OC[C@H]3CO[C@](Cn4ccnc4)(c4ccc(Cl)cc4Cl)O3)cc2)CC1`, the IC50 is 17.5 µM and the IC90 stood at 25.2 µM. As for `CCc1ccc2oc(-c3ccc(OC)cc3)cc(=Nc3c(C)n(C)n(-c4ccccc4)c3=O)c2c1`, the IC50 is 22.4 µM and the IC90 worked out at 25.1 µM. Taken in the same sequence, the figures for `O=C(CCl)NN=C(c1ccccc1)c1ccccc1` were 0.52 µM and 1.89 µM. The like results for `COc1ccc(-n2nc3c(c2NC(=O)CCl)CSC3)cc1` were, in that order, 4.85 µM and 9.39 µM.

In the case of `C/C(=N\Nc1nc2c(s1)CCCC2)c1ccccc1`, the IC50 is 18.6 µM and the IC90 stood at 34.4 µM.

In the case of `Nc1cc(C(=O)OCC(=O)NNC(=O)c2cccs2)ccc1Cl`, the IC50 is 64.2 µM and the IC90 was greater than 100 µM. Taken in the same sequence, the figures for `Cc1nonc1NC(=O)CSc1ccc(-c2ccccc2)nn1` were 21.1 µM and 52.9 µM. `Nc1cc([N+](=O)[O-])cc2oc(-c3ccccc3)cc12`: the half-inhibitory concentration (IC50) is 98.3 µM and the IC90 is greater than 100 µM. The like results for `Cc1cccc(-c2ncc(CN3CCC(CO)(CCCc4ccccc4)CC3)cn2)c1` were, in that order, 44.1 µM and 73.5 µM. The like results for `COc1ccccc1NC(=O)CN1CCN(CC(=O)Nc2ccc3c(c2)OCO3)CC1` were, in that order, 14.8 µM and 33.6 µM.

As to `Cc1c(CN(C)C)c2c(n1Cc1ccccc1)C(=O)c1ccc(Br)cc1-2`, the concentration for half-maximal inhibition (IC50) is 17.6 µM and the 90% effect concentration (IC90) was determined as 22 µM. Taken in the same sequence, the figures for `Cc1ccc2cc(C)c(N3CCN(c4ccccn4)CC3)nc2c1` were 29.7 µM and 46.3 µM. The like results for `CCOC(=O)c1cnc(-n2nc(C)cc2C)nc1NNc1cc(C)nc(-c2ccccc2)n1` were, in that order, 23.7 µM and 92 µM.

`O=C1c2ccccc2-c2onc3ccc(Oc4ccccc4)c1c23`: the IC50 is 5.64 µM and the IC90 was determined as 10.9 µM. The like results for `O=C(NNC(=O)C12CC3CC(CC(C3)C1)C2)c1ccccn1` were, in that order, 5.36 µM and 23.5 µM. The like results for `COc1cc2c(cc1NC(=O)CN1C(=O)NC3(CCc4ccccc43)C1=O)oc1ccccc12` (stereo not given) were, in that order, 29.5 µM and greater than 100 µM. Taken in the same sequence, the figures for `O=C1Nc2ccc(Br)cc2C12NNc1ccccc1O2` (stereo not given) were 23.3 µM and 43.6 µM.

For the compound `Cc1ccc(-c2csc3nc4c5ccccc5c(NCCCN5CCOCC5)nn4c(=O)c23)cc1`, the IC50 was 24.7 µM and the IC90 was determined as 27.7 µM. Taken in the same sequence, the figures for `C=CCOC(=O)COc1ccc2c(C)c(CC)c(=O)oc2c1` were 1.08 µM and 2.21 µM. Taken in the same sequence, the figures for `CCOC(=O)CSc1nc(N)c(C(=O)Nc2ccc(N(C)C)cc2)s1` were 1.05 µM and 5.82 µM. As for `CC(C)(C)NC(=O)C(=O)NNC(=O)c1ccc(C(C)(C)C)cc1`, the IC50 is 5.71 µM and the 90% effect concentration (IC90) worked out at 17.6 µM. The like results for `CCOc1ccc(-c2cc(C(=O)NCCCn3ccnc3)c3cc(Br)ccc3n2)cc1` were, in that order, 24.1 µM and 27.4 µM. The like results for `Cc1cncn1CCc1nc2c3ccccc3nc(SCC(=O)Nc3cccc(Cl)c3)n2n1` were, in that order, 20.9 µM and 27.9 µM. `S=c1nc[nH]c2nc[nH]c12`: the concentration for half-maximal inhibition (IC50) is 3.08 µM and the concentration for an effect of 90% (IC90) turned out to be 3.43 µM.

As for `Nc1c2c(nc3sc4c(c13)CCCCC4)CCCC2`, the IC50 is 4.56 µM and the 90% effect concentration (IC90) amounted to 13.8 µM. In the case of `C=CCOc1ccc(C2=NOC(C(=O)Nc3ccc4c(c3)OCCO4)C2)cc1` (stereo not given), the IC50 is 12.8 µM and the IC90 was found to be 23.1 µM. As for `Cc1nn(-c2ccccc2)c(N)c1C(c1ccc(C(C)C)cc1)c1c(C)nn(-c2ccccc2)c1N`, the IC50 is 20.4 µM and the 90% effect concentration (IC90) was 27.1 µM. The like results for `CCCCC(O)(CCCC)C(=O)NN(C(=O)CCl)c1ccccc1` were, in that order, 3.9 µM and 10.5 µM.

As to `Cc1ccnc(Sc2ccc([N+](=O)[O-])cc2[N+](=O)[O-])n1`, the IC50 is 7.7 µM and the IC90 is 15.1 µM. `COC(=O)CCc1nc2c(C#N)c(-c3ccc(Cl)cc3)ccn2n1`: the IC50 is 1.68 µM and the IC90 turned out to be 3.31 µM. `CN(C(=O)COC(=O)/C=C/c1ccc(Cl)c(Cl)c1)c1c(N)n(Cc2ccccc2)c(=O)[nH]c1=O` registered an IC90 greater than 100 µM. Regarding `O=C(OCC(=O)N1CCCc2ccccc21)c1ccc(S(=O)(=O)C(F)F)cc1`, the IC50 is 24.1 µM and the IC90 worked out at 38 µM. Regarding `CN1C(=O)N(C)c2ccc(C=O)c3cccc1c23`, the IC50 is 41 µM and the IC90 turned out to be 57.2 µM. With `CC(C)(C)c1ccc(C(=O)NC(=S)NNC(=O)COc2ccccc2)cc1`, the concentration for half-maximal inhibition (IC50) is 3.39 µM and the IC90 worked out at 8.56 µM. Taken in the same sequence, the figures for `O=C(/C=C/c1ccc(O)c([N+](=O)[O-])c1)c1ccc2ccccc2c1` were 9.26 µM and 25.6 µM. The like results for `Cc1ccc(Cl)cc1N1CCN(CC(=O)NC2CCCc3ccccc32)CC1` (stereo not given) were, in that order, 31.5 µM and 46.1 µM. The like results for `CCOC(=O)C(C)Sc1ncnc2c1nnn2-c1ccc(F)cc1` (stereo not given) were, in that order, 1.19 µM and 7.38 µM. Consider `CC1CN(C(=S)SCC(=O)c2ccc([N+](=O)[O-])cc2)CC(C)O1` (stereo not given), for which the IC50 is 27 µM and the IC90 was greater than 100 µM.
